Measured values from patent publication US7772271B2 (priority 2004, dated 2010).

Compared with CCCS(=O)(=O)Nc1ccc(-c2c(C#N)c3ccc(N4CCCC4)cc3n2C2CCC2)cc1 [Compound 2955], CCS(=O)(=O)Nc1ccc(-c2c(C#N)c3ccc(N4CCCC4)cc3n2C2CCC2)cc1 [Compound 2962] is higher in melting point: 229 to 234 °C for the first, 244 to 250 °C for the second.

First: CCCS(=O)(=O)Nc1ccc(-c2c(C#N)c3ccc(Oc4ncccc4F)cc3n2C2CC2)cc1 [Compound 2956]
Second: CCCS(=O)(=O)Nc1ccc(-c2c(C#N)c3ccc(Oc4ncccc4Br)cc3n2C2CC2)cc1 [Compound 3003]
The melting point of the first is lower: 198 to 200 °C for the first, 223 to 225 °C for the second.

First: CS(=O)(=O)CCCOc1ccc2c(C#N)c(-c3ccc(NS(=O)(=O)C4CC4)cc3)n(C3CCC3)c2c1 [Compound 2957]
Second: CS(=O)(=O)COc1ccc2c(C#N)c(-c3ccc(NS(=O)(=O)C4CCC4)cc3)n(C3CCC3)c2c1 [Compound 2993]
The melting point of the first is lower: 203 to 204 °C for the first, 231 to 237 °C for the second.

First: C[C@@H](OC(=O)Nc1ccc(-c2c(C#N)c3ccc(OCCCS(C)(=O)=O)cc3n2C2CCC2)cc1)C(F)(F)F [Compound 2958]
Second: CC(OC(=O)Nc1ccc(-c2c(C#N)c3ccc(OCc4cnccn4)cc3n2C2CCC2)cc1)C(F)(F)F (stereo not shown) [Compound 3021]
The melting point of the first is higher: 206 to 208 °C for the first, 195 to 196 °C for the second.

First: C[C@@H](OC(=O)Nc1ccc(-c2c(C#N)c3ccc(-c4ccccn4)cc3n2C2CCC2)cc1)C(F)(F)F [Compound 2959]
Second: C[C@@H](OC(=O)Nc1ccc(-c2c(C#N)c3ccc(-c4ccccn4)cc3n2C2CCC2)cc1Cl)C(F)(F)F [Compound 2994]
The melting point of the first is higher: 220 to 222 °C for the first, 84 to 94 °C for the second.

First: N#Cc1c(-c2ccc(NS(=O)(=O)C3CC3)cc2)n(C2CCC2)c2cc(N3CCCC3)ccc12 [Compound 2960]
Second: N#Cc1c(-c2ccc(NS(=O)(=O)C3CC3)cc2)n(C2CCC2)c2cc(N3CCCCC3)ccc12 [Compound 2983]
The melting point of the first is higher: 258 to 260 °C for the first, 232 to 238 °C for the second.

Compared with C[C@@H](OC(=O)Nc1ccc(-c2c(C#N)c3ccc(N4CCCC4)cc3n2C2CCC2)cc1)C(F)(F)F [Compound 2961], CC(C)OC(=O)Nc1ccc(-c2c(C#N)c3ccc(N4CCCCC4)cc3n2C2CCC2)cc1 [Compound 2967] is lower in melting point: 246 to 249 °C for the first, 208 to 213 °C for the second.

First: CCCS(=O)(=O)Nc1ccc(-c2c(C#N)c3ccc(N4CCCCC4)cc3n2CC2CC2)cc1 [Compound 2963]
Second: CCS(=O)(=O)Nc1ccc(-c2c(C#N)c3ccc(N4CCCCC4)cc3n2C2CCC2)cc1 [Compound 2974]
The melting point of the first is lower: 189 to 194 °C for the first, 203 to 205 °C for the second.

Compared with CC1(S(=O)(=O)Nc2ccc(-c3c(C#N)c4ccc(C(=O)N5CCOCC5)cc4n3C3CCC3)cc2)CC1 [Compound 2964], CCC1(S(=O)(=O)Nc2ccc(-c3c(C#N)c4ccc(C(=O)N5CCOCC5)cc4n3C3CCC3)cc2)CC1 [Compound 2965] is lower in melting point: 248 to 250 °C for the first, 212 to 214 °C for the second.

First: CC(C)S(=O)(=O)Nc1ccc(-c2c(C#N)c3ccc(N4CCCCC4)cc3n2C2CCC2)cc1 [Compound 2968]
Second: CC(C)S(=O)(=O)Nc1ccc(-c2c(C#N)c3ccc(N4CCCC4)cc3n2C2CCC2)cc1 [Compound 2975]
The melting point of the first is lower: 233 to 235 °C for the first, 256 to 261 °C for the second.

First: CCCS(=O)(=O)Nc1ccc(-c2c(C#N)c3ccc(Oc4nccc(C)n4)cc3n2CC2CC2)cc1 [Compound 2969]
Second: CCCS(=O)(=O)Nc1ccc(-c2c(C#N)c3ccc(Oc4nccc(C)n4)cc3n2CC2CC2)c(C)c1 [Compound 2980]
The melting point of the first is higher: 181 to 183 °C for the first, 167 to 170 °C for the second.

First: N#Cc1c(-c2ccc(NCc3ccccc3C(F)(F)F)cc2)n(C2CCC2)c2cc(OCCF)ccc12 [Compound 2970]
Second: C[C@@H](OC(=O)Nc1ccc(-c2c(C#N)c3ccc(-c4ncccc4C(F)(F)F)cc3n2C2CCC2)cc1)C1CC1 [Compound 2997]
The melting point of the first is higher: 183 to 185 °C for the first, 90 to 98 °C for the second.

First: CCCS(=O)(=O)Nc1ccc(-c2c(C#N)c3ccc(-c4ncccc4Cl)cc3n2C2CCC2)cc1 [Compound 2972]
Second: CCCS(=O)(=O)Nc1ccc(-c2c(C#N)c3ccc(-c4cc(C)ccn4)cc3n2C2CCC2)cc1 [Compound 2978]
The melting point of the first is higher: 235 to 237 °C for the first, 210 to 212 °C for the second.

Compared with Cc1cccc(-c2ccc3c(C#N)c(-c4ccc(NC(=O)O[C@H](C)C5CC5)cc4)n(C4CCC4)c3c2)c1 [Compound 2977], Cc1ccc(-c2ccc3c(C#N)c(-c4ccc(NC(=O)O[C@H](C)C5CC5)cc4)n(C4CCC4)c3c2)nc1 [Compound 3002] is lower in melting point: 112 to 117 °C for the first, 88 to 102 °C for the second.

First: CCCS(=O)(=O)Nc1ccc(-c2c(C#N)c3ccc(Oc4nccc(C(F)(F)F)n4)cc3n2CC2CC2)c(C)c1 [Compound 2981]
Second: CCCS(=O)(=O)Nc1ccc(-c2c(C#N)c3ccc(Oc4ncccc4F)cc3n2CC2CC2)c(C)c1 [Compound 3030]
The melting point of the first is higher: 174 to 177 °C for the first, 128 to 131 °C for the second.

First: CC(C)CS(=O)(=O)Nc1ccc(-c2c(C#N)c3ccc(N4CCCCC4)cc3n2C2CCC2)cc1 [Compound 2982]
Second: CS(=O)(=O)Nc1ccc(-c2c(C#N)c3ccc(N4CCCCC4)cc3n2C2CCC2)cc1 [Compound 2984]
The melting point of the first is lower: 198 to 202 °C for the first, 229 to 233 °C for the second.

First: C[C@@H](OC(=O)Nc1ccc(-c2c(C#N)c3ccc(N4CCCC4)cc3n2C2CCC2)cc1)C1CC1 [Compound 2985]
Second: C[C@@H](OC(=O)Nc1ccc(-c2c(C#N)c3ccc(N4CCCC4)cc3n2C2CC2)cc1)C1CC1 [Compound 2986]
The melting point of the first is higher: 205 to 210 °C for the first, 197 to 202 °C for the second.

Compared with CCCS(=O)(=O)Nc1ccc(-c2c(C#N)c3ccc(OCS(C)(=O)=O)cc3n2C2CCC2)cc1 [Compound 2987], CC(C)CS(=O)(=O)Nc1ccc(-c2c(C#N)c3ccc(OCS(C)(=O)=O)cc3n2C2CCC2)cc1 [Compound 2991] is lower in melting point: 266 to 273 °C for the first, 221 to 225 °C for the second.

Compared with C[C@@H](OC(=O)Nc1ccc(-c2c(C#N)c3cc(Oc4cnccn4)ccc3n2C2CCC2)cc1)C1CC1 [Compound 2995], C[C@@H](OC(=O)Nc1ccc(-c2c(C#N)c3cc(Oc4ncccn4)ccc3n2C2CCC2)cc1)C1CC1 [Compound 2996] is lower in melting point: 206 to 208 °C for the first, 200 to 202 °C for the second.

First: Cc1cccnc1-c1ccc2c(C#N)c(-c3ccc(NC(=O)O[C@H](C)C4CC4)cc3)n(C3CCC3)c2c1 [Compound 2999]
Second: C[C@@H](OC(=O)Nc1ccc(-c2c(C#N)c3ccc(-c4ccnn4C)cc3n2C2CCC2)cc1)C1CC1 [Compound 3046]
The melting point of the first is higher: 226 to 228 °C for the first, 195 to 197 °C for the second.

First: C[C@@H](OC(=O)Nc1ccc(-c2c(C#N)c3ccc(-c4cccc(Cl)n4)cc3n2C2CCC2)cc1)C1CC1 [Compound 3000]
Second: C[C@@H](OC(=O)Nc1ccc(-c2c(C#N)c3ccc(-c4ccc(Cl)cn4)cc3n2C2CCC2)cc1)C1CC1 [Compound 3001]
The melting point of the first is higher: 208 to 210 °C for the first, 111 to 122 °C for the second.

First: CC(C)Nc1ccc(-c2c(C#N)c3ccc(Oc4ncccc4F)cc3n2C2CCC2)cc1 [Compound 3004]
Second: Cc1ccnc(Oc2ccc3c(C#N)c(-c4ccc(NC(C)C)cc4)n(C4CCC4)c3c2)n1 [Compound 3006]
The melting point of the first is higher: 188 to 190 °C for the first, 173 to 175 °C for the second.

C[C@@H](OC(=O)Nc1ccc(-c2c(C#N)c3ccc(Oc4ncccc4F)cc3n2C2CC2)cc1)C1CC1 [Compound 3007] and C[C@H](NS(=O)(=O)Nc1ccc(-c2c(C#N)c3ccc(Oc4ncccc4F)cc3n2C2CCC2)cc1)C1CC1 [Compound 3018] cannot be ordered by melting point: 154 to 156 °C for the first, 155 to 157 °C for the second.

First: CC(C)OC(=O)Nc1ccc(-c2c(C#N)c3ccc(N4CCOCC4)cc3n2C2CCC2)cc1Cl [Compound 3011]
Second: CCCS(=O)(=O)Nc1ccc(-c2c(C#N)c3ccc(N4CCOCC4)cc3n2C2CCC2)cc1 [Compound 3013]
The melting point of the first is higher: 196 to 199 °C for the first, 176 to 179 °C for the second.

C[C@H](NS(=O)(=O)Nc1ccc(-c2c(C#N)c3ccc(Oc4ncccc4Cl)cc3n2C2CCC2)cc1)C1CC1 [Compound 3017] and C[C@H](NS(=O)(=O)Nc1ccc(-c2c(C#N)c3ccc(Oc4ncccc4Br)cc3n2C2CCC2)cc1)C1CC1 [Compound 3020] cannot be ordered by melting point: 120 to 125 °C for the first, 118 to 124 °C for the second.

First: Cc1ccnc(Oc2ccc3c(C#N)c(-c4ccc(NS(=O)(=O)N[C@@H](C)C5CC5)cc4)n(C4CCC4)c3c2)n1 [Compound 3019]
Second: C[C@@H](OC(=O)Nc1ccc(-c2c(C#N)c3ccc(Oc4ncccn4)cc3n2C2CCC2)cc1OC(F)(F)F)C1CC1 [Compound 3034]
The melting point of the first is higher: 227 to 229 °C for the first, 80 to 81 °C for the second.

First: CC(C)(C)OC(=O)Nc1ccc(-c2c(C#N)c3ccc(OCS(C)(=O)=O)cc3n2CC2CC2)cc1 [Compound 3025]
Second: CCCS(=O)(=O)Nc1ccc(-c2c(C#N)c3ccc(Oc4ncccc4Br)cc3n2CC2CC2)c(C)c1 [Compound 3029]
The melting point of the first is higher: 214 to 220 °C for the first, 110 to 113 °C for the second.

First: CC(C)OC(=O)Nc1ccc(-c2c(C#N)c3ccc(Oc4ncccn4)cc3n2C2CCC2)cc1OC(F)(F)F [Compound 3035]
Second: CC(C)OC(=O)Nc1c(F)cc(-c2c(C#N)c3ccc(Oc4ncccn4)cc3n2C2CCC2)cc1F [Compound 3036]
The melting point of the first is lower: 94 to 96 °C for the first, 144 to 154 °C for the second.

First: CC(C)NC(=O)Nc1c(F)cc(-c2c(C#N)c3ccc(Oc4ncccn4)cc3n2C2CCC2)cc1F [Compound 3038]
Second: CC(C)NC(=O)Nc1c(F)cc(-c2c(C#N)c3ccc(OCCF)cc3n2C2CCC2)cc1F [Compound 3041]
The melting point of the first is higher: 236 to 243 °C for the first, 224 to 229 °C for the second.

First: CC(C)OC(=O)Nc1c(F)cc(-c2c(C#N)c3ccc(OCCF)cc3n2C2CCC2)cc1F [Compound 3039]
Second: C[C@@H](OC(=O)Nc1c(F)cc(-c2c(C#N)c3ccc(OCCF)cc3n2C2CCC2)cc1F)C1CC1 [Compound 3040]
The melting point of the first is lower: 150 to 155 °C for the first, 176 to 180 °C for the second.

Compared with Cc1cc(-c2c(C#N)c3ccc(OCC(F)F)cc3n2C2CCC2)ccc1NC(=O)OC(C)C(F)(F)F (stereo not shown) [Compound 3049], CC(OC(=O)Nc1ccc(-c2c(C#N)c3ccc(OCC(F)F)cc3n2C2CCC2)cc1Cl)C(F)(F)F (stereo not shown) [Compound 3051] is higher in melting point: 154 to 155 °C for the first, 184 to 185 °C for the second.

In the case of CC(C)CS(=O)(=O)Nc1ccc(-c2c(C#N)c3ccc(-n4ccccc4=O)cc3n2C2CCC2)cc1 [Compound 3015], the melting point is reported as 270 °C (dec.).
For C[C@@H](OC(=O)Nc1ccc(-c2c(C#N)c3ccc(-c4cn(C)cn4)cc3n2C2CCC2)cc1)C1CC1 [Compound 3048], the melting point was 120 °C (dec.).
